Assay results: PubChem BioAssay AID274 (DTP/NCI, 2004)
Several values for one entry are separate records, joined by “and”; a condition that tells them apart may be missing. Identical values can stand only once. Toxic doses and inconclusive results are not listed.

Tested on: BDF1 mice, Lewis lung carcinoma iv, survival T/C
Assay: NCI In Vivo Anticancer Drug Screen. Data for tumor model Lewis Lung Carcinoma (intravenous) in B6D2F1 (BDF1) mice
Conditions: endpoint: median survival time, higher = longer survival
Procedure: The antitumor activity of compounds was measured in mice bearing transplantable tumors. Survival or tumor size were measured and the results are expressed as the measurement made in the treated group (T) divided by the measurement made in the vehicle treated control group (C). The tumor model used in this assay is Lewis Lung Carcinoma (intravenous) in B6D2F1 (BDF1) mice

[1] = dose: 12.5 mg/kg/injection, schedule: Q01DX009 (ip), vehicle: saline with Tween-80
[2] = dose: 25.0 mg/kg/injection, schedule: Q01DX009 (ip), vehicle: saline with Tween-80
[3] = dose: 50.0 mg/kg/injection, schedule: Q01DX009 (ip), vehicle: saline with Tween-80
[4] = dose: 100.0 mg/kg/injection, schedule: Q01DX009 (ip), vehicle: saline with Tween-80
[5] = dose: 200.0 mg/kg/injection, schedule: Q01DX009 (ip), vehicle: saline with Tween-80
[6] = dose: 12.5 mg/kg/injection, schedule: Q01DX009 (ip), vehicle: saline
[7] = dose: 25.0 mg/kg/injection, schedule: Q01DX009 (ip), vehicle: saline
[8] = dose: 50.0 mg/kg/injection, schedule: Q01DX009 (ip), vehicle: saline
[9] = dose: 100.0 mg/kg/injection, schedule: Q01DX009 (ip), vehicle: saline
[10] = dose: 200.0 mg/kg/injection, schedule: Q01DX009 (ip), vehicle: saline
[11] = dose: 6.25 mg/kg/injection, schedule: Q01DX009 (ip), vehicle: Klucel (hydroxypropylcellulose) (HPC)
[12] = dose: 12.5 mg/kg/injection, schedule: Q01DX009 (ip), vehicle: Klucel (hydroxypropylcellulose) (HPC)
[13] = dose: 25.0 mg/kg/injection, schedule: Q01DX009 (ip), vehicle: Klucel (hydroxypropylcellulose) (HPC)
[14] = dose: 50.0 mg/kg/injection, schedule: Q01DX009 (ip), vehicle: Klucel (hydroxypropylcellulose) (HPC)
[15] = dose: 6.25 mg/kg/injection, schedule: Q01DX009 (ip), vehicle: saline

With CC(C)(C)N1CC1CNC(=O)C(=O)NCC1CN1C(C)(C)C (stereo not drawn) the T/C (dose: 0.78 mg/kg/injection, schedule: Q01DX009 (ip), vehicle: saline with Tween-80) was 111 % of control, the T/C (dose: 1.56 mg/kg/injection, schedule: Q01DX009 (ip), vehicle: saline with Tween-80) was 105 % of control and the T/C (dose: 3.12 mg/kg/injection, schedule: Q01DX009 (ip), vehicle: saline with Tween-80) was 98 % of control. The T/C (dose: 6.25 mg/kg/injection, schedule: Q01DX009 (ip), vehicle: saline with Tween-80) was 105 % of control and the T/C [1] was 117 % of control.
In the case of O=[N+]([O-])c1ccc(-n2[nH]nnc2=S)cc1, the T/C [1] is reported as 92 % of control, the T/C [2] is reported as 101 % of control and the T/C [3] is reported as 92 % of control. For the same compound, the T/C [4] was 92 % of control and the T/C [5] was 93 % of control.
Clc1ccc2nnnn2n1 was tested, and the T/C [1] was 102 % of control, the T/C [2] was 115 % of control and the T/C [3] was 104 % of control. The T/C [4] was 98 % of control and the T/C [5] was 108 % of control.
With NC(Cc1cc([N+](=O)[O-])ccc1CN(CCCl)CCCl)C(=O)O (stereo not drawn) the T/C (dose: 3.24 mg/kg/injection, schedule: Q04DX003 (ip), vehicle: Klucel (hydroxypropylcellulose) (HPC)) was 102 % of control, the T/C (dose: 5.4 mg/kg/injection, schedule: Q04DX003 (ip), vehicle: Klucel (hydroxypropylcellulose) (HPC)) was 115 % of control and the T/C (dose: 15.0 mg/kg/injection, schedule: Q04DX003 (ip), vehicle: Klucel (hydroxypropylcellulose) (HPC)) was 102 % of control.
For O=C(O)C(CSC(c1ccccc1)(c1ccccc1)c1ccccc1)N=Cc1cccs1 (stereo not drawn), the T/C [6] was 107 % of control, the T/C [7] was 102 % of control and the T/C [8] was 101 % of control.
For O=C(O)CP(=O)(O)O, the T/C [8] was 96 % of control, the T/C [9] was 96 % of control and the T/C [10] was 152 % of control.
O=C(Nc1ccc(N=C=S)cc1Cl)c1cc(Cl)cc(Cl)c1O was tested, and the T/C [11] was 97 % of control, the T/C [12] was 97 % of control and the T/C [13] was 105 % of control. For the same compound, the T/C [14] was 116 % of control.
In the case of O=S(=O)(c1ccc(NC(C(O)C(O)C(O)C(O)CO)S(=O)(=O)O)cc1)c1ccc(NC(C(O)C(O)C(O)C(O)CO)S(=O)(=O)O)cc1 (stereo not drawn), the T/C (dose: 72.0 mg/kg/injection, schedule: Q01DX007 (ip), vehicle: saline) is reported as 90 % of control, the T/C (dose: 102.9 mg/kg/injection, schedule: Q01DX007 (ip), vehicle: saline) is reported as 95 % of control and the T/C (dose: 147.0 mg/kg/injection, schedule: Q01DX007 (ip), vehicle: saline) is reported as 86 % of control. The T/C (dose: 210.0 mg/kg/injection, schedule: Q01DX007 (ip), vehicle: saline) was 96 % of control and the T/C (dose: 300.0 mg/kg/injection, schedule: Q01DX007 (ip), vehicle: saline) was 94 % of control.
In the case of Nc1nc(=S)c2ncn(C3OC(CO)CC3O)c2[nH]1 (stereo not drawn), the T/C (dose: 5.0 mg/kg/injection, schedule: Q01DX009 (ip), vehicle: saline) is reported as 115 % of control, the T/C (dose: 10.0 mg/kg/injection, schedule: Q01DX009 (ip), vehicle: saline) is reported as 101 % of control and the T/C (dose: 20.0 mg/kg/injection, schedule: Q01DX009 (ip), vehicle: saline) is reported as 87 % of control.
[Cl][Mn][Cl] was tested, and the T/C (dose: 1.0 mg/kg/injection, schedule: Q01DX009 (ip), vehicle: saline) was 109 % of control, the T/C (dose: 2.0 mg/kg/injection, schedule: Q01DX009 (ip), vehicle: saline) was 99 % of control and the T/C (dose: 4.0 mg/kg/injection, schedule: Q01DX009 (ip), vehicle: saline) was 105 % of control and 90 % of control. The T/C (dose: 8.0 mg/kg/injection, schedule: Q01DX009 (ip), vehicle: saline) was 101 % of control and 121 % of control, the T/C (dose: 16.0 mg/kg/injection, schedule: Q01DX009 (ip), vehicle: saline) was 91 % of control and 101 % of control and the T/C (dose: 32.0 mg/kg/injection, schedule: Q01DX009 (ip), vehicle: saline) was 94 % of control and 98 % of control. For the same compound, the T/C (dose: 64.0 mg/kg/injection, schedule: Q01DX009 (ip), vehicle: saline) was 96 % of control and 108 % of control.
With COc1ccc2c(c1)/C(=C/CCN(C)C)c1ccccc1S2 the T/C [15] was 114 % of control, the T/C [6] was 98 % of control and 105 % of control and the T/C [7] was 106 % of control and 110 % of control.
With CC(=O)OCC(=O)[C@@]12OC(C)(C)O[C@@H]1C[C@H]1[C@@H]3CC(C=O)=C4C=C(OCCCl)CC[C@]4(C)[C@@]3(F)[C@@H](O)C[C@@]12C the T/C (dose: 1.56 mg/kg/injection, schedule: Q01DX009 (ip), vehicle: Klucel (hydroxypropylcellulose) (HPC)) was 104 % of control, the T/C (dose: 3.12 mg/kg/injection, schedule: Q01DX009 (ip), vehicle: Klucel (hydroxypropylcellulose) (HPC)) was 100 % of control and the T/C (dose: 3.13 mg/kg/injection, schedule: Q01DX009 (ip), vehicle: Klucel (hydroxypropylcellulose) (HPC)) was 110 % of control. The T/C [11] was 102 % of control and 112 % of control and the T/C [12] was 104 % of control and 121 % of control.
With CN1C(=O)NC(c2ccc(Cl)cc2)(c2ccc(Cl)cc2)C1=O the T/C (dose: 12.5 mg/kg/injection, schedule: Q01DX009 (ip), vehicle: distilled water + Tween-80) was 102 % of control, the T/C (dose: 25.0 mg/kg/injection, schedule: Q01DX009 (ip), vehicle: distilled water + Tween-80) was 124 % of control and the T/C (dose: 50.0 mg/kg/injection, schedule: Q01DX009 (ip), vehicle: distilled water + Tween-80) was 116 % of control. For the same compound, the T/C (dose: 200.0 mg/kg/injection, schedule: Q01DX009 (ip), vehicle: distilled water + Tween-80) was 105 % of control.
With CN(Cc1cnc2nc(N)nc(N)c2n1)c1c(Cl)cc(C(=O)NC(CCC(=O)O)C(=O)O)cc1Cl (stereo not drawn) the T/C [12] was 96 % of control, the T/C [13] was 93 % of control and the T/C [14] was 98 % of control.
With COc1cc(NCCCCCCCNC(C)C)c2nccc(C)c2c1 the T/C (dose: 3.12 mg/kg/injection, schedule: Q01DX009 (ip), vehicle: saline) was 94 % of control, the T/C [15] was 100 % of control and the T/C [6] was 98 % of control. The T/C [7] was 108 % of control.
In the case of C=C1C(=O)C2=CC1CCC(=O)C1(C)CCC(OC(C)=O)C(C)(C)C1CC2O (stereo not drawn), the T/C (dose: 3.75 mg/kg/injection, schedule: Q01DX009 (ip), vehicle: Klucel (hydroxypropylcellulose) (HPC)) is reported as 105 % of control, the T/C (dose: 7.5 mg/kg/injection, schedule: Q01DX009 (ip), vehicle: Klucel (hydroxypropylcellulose) (HPC)) is reported as 100 % of control and the T/C (dose: 15.0 mg/kg/injection, schedule: Q01DX009 (ip), vehicle: Klucel (hydroxypropylcellulose) (HPC)) is reported as 100 % of control. For the same compound, the T/C (dose: 30.0 mg/kg/injection, schedule: Q01DX009 (ip), vehicle: Klucel (hydroxypropylcellulose) (HPC)) was 104 % of control and the T/C (dose: 60.0 mg/kg/injection, schedule: Q01DX009 (ip), vehicle: Klucel (hydroxypropylcellulose) (HPC)) was 93 % of control.
With CC(CN1CC(=O)NC(=O)C1)N1CC(=O)NC(=O)C1 (stereo not drawn) the T/C (dose: 64.8 mg/kg/injection, schedule: Q04DX003 (ip), vehicle: Klucel (hydroxypropylcellulose) (HPC)) was 110 % of control and 112 % of control and 119 % of control, the T/C (dose: 108.0 mg/kg/injection, schedule: Q04DX003 (ip), vehicle: Klucel (hydroxypropylcellulose) (HPC)) was 111 % of control and 114 % of control and the T/C (dose: 300.0 mg/kg/injection, schedule: Q04DX003 (ip), vehicle: Klucel (hydroxypropylcellulose) (HPC)) was 154 % of control and 178 % of control.
O=C1CN(CN2CCOCC2)C(=O)CN1CN1CCOCC1 was tested, and the T/C [6] was 118 % of control, the T/C [7] was 113 % of control and the T/C [8] was 95 % of control. For the same compound, the T/C [9] was 93 % of control and the T/C [10] was 104 % of control.
Cc1ccc(S(=O)(=O)NC(=O)OC23COCN2COC3)cc1 was tested, and the T/C [1] was 98 % of control, the T/C [2] was 105 % of control and the T/C [3] was 96 % of control. For the same compound, the T/C [4] was 98 % of control, the T/C [5] was 98 % of control and the T/C (dose: 400.0 mg/kg/injection, schedule: Q01DX009 (ip), vehicle: saline with Tween-80) was 101 % of control.
For COc1cccc2c1C(=O)c1c(O)c3c(c(O)c1C2=O)C[C@@](O)(C(=O)CO)C[C@@H]3OC1CC(N)CC(C)O1 (stereo partly drawn), the T/C (dose: 0.18 mg/kg/injection, schedule: Q01DX009 (ip), vehicle: water) was 108 % of control and the T/C (dose: 0.37 mg/kg/injection, schedule: Q01DX009 (ip), vehicle: water) was 112 % of control.
CCN(C)N=Nc1ccc(C(N)=O)cc1 was tested, and the T/C [11] was 104 % of control, the T/C [12] was 102 % of control and the T/C [13] was 109 % of control. For the same compound, the T/C [14] was 122 % of control and the T/C (dose: 100.0 mg/kg/injection, schedule: Q01DX009 (ip), vehicle: Klucel (hydroxypropylcellulose) (HPC)) was 87 % of control.
